Results published in patent US8604217B2, “Compound, a process for its preparation, a pharmaceutical composition, use of a compound, a method for modulating or regulating serine/threonine kinases and a serine/threonine kinases modulating agent” (Selvita S.A., priority 2009, dated 2013).

Key:
Assay in all cases: KinaseProfiler kinase panel
[1] = biological target: MRCKβ(h) (Homo sapiens (Human), UniProt Q9Y5S2); assay type: biochemical
[2] = biological target: mTOR/FKBP12(h) (Homo sapiens (Human), UniProt P42345); assay type: biochemical
[3] = biological target: GRK6(h) (Homo sapiens (Human), UniProt P43250); assay type: biochemical
[4] = biological target: MELK(h) (Homo sapiens (Human), UniProt Q14680); assay type: biochemical
[5] = biological target: TLK2(h) (Homo sapiens (Human), UniProt Q86UE8); assay type: biochemical
[6] = biological target: PAK4(h) (Homo sapiens (Human), UniProt O96013); assay type: biochemical
[7] = biological target: FGFR1(V561M)(h) (Homo sapiens (Human), UniProt P11362, V561M); assay type: biochemical
[8] = biological target: SAPK2a(T106M)(h) (Homo sapiens (Human), UniProt Q16539, T106M); assay type: biochemical
[9] = biological target: WNK2(h) (Homo sapiens (Human), UniProt Q9Y3S1); assay type: biochemical
[10] = biological target: DAPK2(h) (Homo sapiens (Human), UniProt Q9UIK4); assay type: biochemical
[11] = biological target: EGFR(h) (Homo sapiens (Human), UniProt P00533); assay type: biochemical
[12] = biological target: PKCα(h) (Homo sapiens (Human), UniProt P17252); assay type: biochemical
[13] = test system: MLCK(h); assay type: biochemical, human; details: 1 μM
[14] = biological target: EGFR(T790M, L858R)(h) (Homo sapiens (Human), UniProt P00533, L858R/T790M); assay type: biochemical
[15] = biological target: Hck(h) activated (Homo sapiens (Human), UniProt P08631); assay type: biochemical
[16] = biological target: ACK1(h) (Homo sapiens (Human), UniProt Q07912); assay type: biochemical
[17] = biological target: EphB4(h) (Homo sapiens (Human), UniProt P54760); assay type: biochemical
[18] = biological target: CDK7/cyclinH/MAT1(h) (Homo sapiens (Human), UniProt P50613); assay type: biochemical
[19] = biological target: Rsk4(h) (Homo sapiens (Human), UniProt Q9UK32); assay type: biochemical
[20] = biological target: CDK9/cyclin T1(h) (Homo sapiens (Human), UniProt P50750); assay type: biochemical
[21] = biological target: PKCδ(h) (Homo sapiens (Human), UniProt Q05655); assay type: biochemical
[22] = biological target: Flt1(h) (Homo sapiens (Human), UniProt P17948); assay type: biochemical
[23] = biological target: JNK3(h) (Homo sapiens (Human), UniProt P53779); assay type: biochemical
[24] = biological target: Src(1-530)(h) (Homo sapiens (Human), UniProt P12931); assay type: biochemical
[25] = biological target: Arg(h) (Homo sapiens (Human), UniProt P42684); assay type: biochemical
[26] = biological target: GSK3α(h) (Homo sapiens (Human), UniProt P49840); assay type: biochemical
[27] = biological target: BrSK1(h) (Homo sapiens (Human), UniProt Q8TDC3); assay type: biochemical
[28] = biological target: ULK3(h) (Homo sapiens (Human), UniProt Q6PHR2); assay type: biochemical
[29] = biological target: IRAK1(h) (Homo sapiens (Human), UniProt P51617); assay type: biochemical
[30] = biological target: PRAK(h) (Homo sapiens (Human), UniProt Q8IW41); assay type: biochemical
[31] = biological target: CK2(h) (Homo sapiens (Human), UniProt P68400); assay type: biochemical
[32] = biological target: Mnk2(h) (Homo sapiens (Human), UniProt Q9HBH9); assay type: biochemical
[33] = biological target: MKK7β(h) (Homo sapiens (Human), UniProt O14733); assay type: biochemical
[34] = biological target: IRR(h) (Homo sapiens (Human), UniProt P14616); assay type: biochemical
[35] = biological target: Met(D1246H)(h) (Homo sapiens (Human), UniProt P08581, D1246H); assay type: biochemical
[36] = biological target: CaMKIIβ(h) (Homo sapiens (Human), UniProt Q13554); assay type: biochemical
[37] = biological target: JNK1α1(h) (Homo sapiens (Human), UniProt P45983); assay type: biochemical
[38] = biological target: PKCβI(h) (Homo sapiens (Human), UniProt P05771); assay type: biochemical
[39] = biological target: CK1δ(h) (Homo sapiens (Human), UniProt P48730); assay type: biochemical
[40] = biological target: Syk(h) (Homo sapiens (Human), UniProt P43405); assay type: biochemical

Chain of TLK2(h) (Q86UE8 whole entry): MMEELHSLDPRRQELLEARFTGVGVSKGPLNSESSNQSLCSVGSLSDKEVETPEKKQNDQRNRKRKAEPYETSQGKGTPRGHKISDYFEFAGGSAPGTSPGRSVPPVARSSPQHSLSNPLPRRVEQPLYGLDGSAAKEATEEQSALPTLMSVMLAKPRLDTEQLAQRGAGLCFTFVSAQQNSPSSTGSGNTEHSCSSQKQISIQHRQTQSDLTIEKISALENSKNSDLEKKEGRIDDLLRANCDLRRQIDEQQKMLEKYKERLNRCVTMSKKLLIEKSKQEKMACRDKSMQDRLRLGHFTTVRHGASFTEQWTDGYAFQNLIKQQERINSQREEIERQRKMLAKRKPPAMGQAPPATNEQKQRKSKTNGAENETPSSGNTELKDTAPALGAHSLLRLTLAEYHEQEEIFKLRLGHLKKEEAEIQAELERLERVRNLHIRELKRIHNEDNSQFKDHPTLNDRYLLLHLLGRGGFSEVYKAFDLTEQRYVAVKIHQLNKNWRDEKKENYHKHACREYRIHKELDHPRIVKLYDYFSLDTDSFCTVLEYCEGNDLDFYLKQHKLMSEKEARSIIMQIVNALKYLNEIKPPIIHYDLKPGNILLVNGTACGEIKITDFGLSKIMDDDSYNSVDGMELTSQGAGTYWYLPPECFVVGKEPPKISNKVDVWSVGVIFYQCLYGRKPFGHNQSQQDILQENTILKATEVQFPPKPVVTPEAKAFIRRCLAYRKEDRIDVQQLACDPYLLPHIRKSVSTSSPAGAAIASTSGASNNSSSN
Chain of EphB4(h) (P54760 16-987): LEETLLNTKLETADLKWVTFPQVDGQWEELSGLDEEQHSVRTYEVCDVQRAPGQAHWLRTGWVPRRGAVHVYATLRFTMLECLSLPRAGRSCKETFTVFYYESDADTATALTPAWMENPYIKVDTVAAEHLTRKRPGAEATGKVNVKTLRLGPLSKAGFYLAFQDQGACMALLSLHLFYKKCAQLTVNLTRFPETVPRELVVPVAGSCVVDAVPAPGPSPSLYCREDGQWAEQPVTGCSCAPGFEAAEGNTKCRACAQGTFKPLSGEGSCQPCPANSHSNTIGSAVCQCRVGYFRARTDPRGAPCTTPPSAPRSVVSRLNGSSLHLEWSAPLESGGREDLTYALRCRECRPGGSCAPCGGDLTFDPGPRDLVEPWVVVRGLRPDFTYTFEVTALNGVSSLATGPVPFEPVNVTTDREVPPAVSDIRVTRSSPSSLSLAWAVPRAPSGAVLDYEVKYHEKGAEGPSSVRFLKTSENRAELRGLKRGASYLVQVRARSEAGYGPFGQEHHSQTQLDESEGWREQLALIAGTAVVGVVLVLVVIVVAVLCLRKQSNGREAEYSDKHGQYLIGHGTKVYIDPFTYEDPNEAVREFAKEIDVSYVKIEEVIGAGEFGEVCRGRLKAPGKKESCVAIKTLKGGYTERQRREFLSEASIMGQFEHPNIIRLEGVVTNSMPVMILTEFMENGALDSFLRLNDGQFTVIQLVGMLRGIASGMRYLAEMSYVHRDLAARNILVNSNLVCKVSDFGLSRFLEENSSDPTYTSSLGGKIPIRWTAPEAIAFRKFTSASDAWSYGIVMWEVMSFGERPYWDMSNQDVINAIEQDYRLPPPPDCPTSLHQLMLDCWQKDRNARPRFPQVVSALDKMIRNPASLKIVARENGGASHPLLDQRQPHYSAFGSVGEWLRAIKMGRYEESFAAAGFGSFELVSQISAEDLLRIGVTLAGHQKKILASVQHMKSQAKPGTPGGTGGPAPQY
Chain of IRAK1(h) (P51617 whole entry): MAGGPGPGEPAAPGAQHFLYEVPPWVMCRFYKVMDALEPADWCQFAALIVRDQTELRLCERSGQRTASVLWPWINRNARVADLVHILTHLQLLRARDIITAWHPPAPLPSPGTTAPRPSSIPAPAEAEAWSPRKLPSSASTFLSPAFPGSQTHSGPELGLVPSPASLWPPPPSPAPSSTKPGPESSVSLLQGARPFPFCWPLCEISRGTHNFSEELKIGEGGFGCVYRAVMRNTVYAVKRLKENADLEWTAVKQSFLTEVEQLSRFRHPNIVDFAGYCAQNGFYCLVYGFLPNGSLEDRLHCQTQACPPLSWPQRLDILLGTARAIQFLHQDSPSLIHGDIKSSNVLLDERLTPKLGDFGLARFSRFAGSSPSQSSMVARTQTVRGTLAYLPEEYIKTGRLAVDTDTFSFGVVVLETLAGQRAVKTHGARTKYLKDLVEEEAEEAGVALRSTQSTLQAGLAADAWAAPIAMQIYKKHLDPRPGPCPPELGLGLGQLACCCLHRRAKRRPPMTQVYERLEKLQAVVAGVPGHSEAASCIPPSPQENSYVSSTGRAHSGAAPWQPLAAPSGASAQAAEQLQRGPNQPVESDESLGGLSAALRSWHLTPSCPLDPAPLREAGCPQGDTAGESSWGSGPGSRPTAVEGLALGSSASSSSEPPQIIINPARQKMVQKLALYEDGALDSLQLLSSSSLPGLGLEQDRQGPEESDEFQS
Chain of Mnk2(h) (Q9HBH9 whole entry): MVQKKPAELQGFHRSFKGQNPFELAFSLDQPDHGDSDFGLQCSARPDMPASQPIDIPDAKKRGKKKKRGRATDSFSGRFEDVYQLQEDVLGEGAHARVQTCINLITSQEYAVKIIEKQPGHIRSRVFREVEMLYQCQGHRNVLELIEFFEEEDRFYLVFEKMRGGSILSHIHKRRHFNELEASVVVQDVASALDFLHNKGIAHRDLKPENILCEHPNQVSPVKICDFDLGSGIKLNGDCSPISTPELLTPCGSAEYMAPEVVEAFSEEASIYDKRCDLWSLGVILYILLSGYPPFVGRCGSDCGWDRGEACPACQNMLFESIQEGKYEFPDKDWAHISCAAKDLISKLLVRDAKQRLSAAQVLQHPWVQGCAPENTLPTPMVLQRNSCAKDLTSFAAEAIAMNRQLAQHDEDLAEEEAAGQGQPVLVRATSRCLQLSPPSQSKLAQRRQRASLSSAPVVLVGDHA
Chain of PAK4(h) (O96013 whole entry): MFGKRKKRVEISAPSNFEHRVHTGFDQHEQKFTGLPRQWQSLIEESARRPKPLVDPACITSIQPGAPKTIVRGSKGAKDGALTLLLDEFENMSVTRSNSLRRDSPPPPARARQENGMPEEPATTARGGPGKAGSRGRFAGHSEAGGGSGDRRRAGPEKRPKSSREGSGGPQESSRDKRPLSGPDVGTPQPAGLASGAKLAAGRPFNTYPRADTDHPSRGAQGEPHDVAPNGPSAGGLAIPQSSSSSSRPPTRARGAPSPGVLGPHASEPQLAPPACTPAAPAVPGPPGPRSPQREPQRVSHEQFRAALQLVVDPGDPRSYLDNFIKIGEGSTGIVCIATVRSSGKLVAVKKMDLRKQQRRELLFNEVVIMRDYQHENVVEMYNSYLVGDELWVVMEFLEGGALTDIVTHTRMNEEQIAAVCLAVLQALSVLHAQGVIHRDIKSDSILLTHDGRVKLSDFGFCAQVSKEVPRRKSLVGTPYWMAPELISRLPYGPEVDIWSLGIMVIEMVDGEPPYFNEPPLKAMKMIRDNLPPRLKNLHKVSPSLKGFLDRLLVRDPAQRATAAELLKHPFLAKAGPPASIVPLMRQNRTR
Chain of Flt1(h) (P17948 27-1338): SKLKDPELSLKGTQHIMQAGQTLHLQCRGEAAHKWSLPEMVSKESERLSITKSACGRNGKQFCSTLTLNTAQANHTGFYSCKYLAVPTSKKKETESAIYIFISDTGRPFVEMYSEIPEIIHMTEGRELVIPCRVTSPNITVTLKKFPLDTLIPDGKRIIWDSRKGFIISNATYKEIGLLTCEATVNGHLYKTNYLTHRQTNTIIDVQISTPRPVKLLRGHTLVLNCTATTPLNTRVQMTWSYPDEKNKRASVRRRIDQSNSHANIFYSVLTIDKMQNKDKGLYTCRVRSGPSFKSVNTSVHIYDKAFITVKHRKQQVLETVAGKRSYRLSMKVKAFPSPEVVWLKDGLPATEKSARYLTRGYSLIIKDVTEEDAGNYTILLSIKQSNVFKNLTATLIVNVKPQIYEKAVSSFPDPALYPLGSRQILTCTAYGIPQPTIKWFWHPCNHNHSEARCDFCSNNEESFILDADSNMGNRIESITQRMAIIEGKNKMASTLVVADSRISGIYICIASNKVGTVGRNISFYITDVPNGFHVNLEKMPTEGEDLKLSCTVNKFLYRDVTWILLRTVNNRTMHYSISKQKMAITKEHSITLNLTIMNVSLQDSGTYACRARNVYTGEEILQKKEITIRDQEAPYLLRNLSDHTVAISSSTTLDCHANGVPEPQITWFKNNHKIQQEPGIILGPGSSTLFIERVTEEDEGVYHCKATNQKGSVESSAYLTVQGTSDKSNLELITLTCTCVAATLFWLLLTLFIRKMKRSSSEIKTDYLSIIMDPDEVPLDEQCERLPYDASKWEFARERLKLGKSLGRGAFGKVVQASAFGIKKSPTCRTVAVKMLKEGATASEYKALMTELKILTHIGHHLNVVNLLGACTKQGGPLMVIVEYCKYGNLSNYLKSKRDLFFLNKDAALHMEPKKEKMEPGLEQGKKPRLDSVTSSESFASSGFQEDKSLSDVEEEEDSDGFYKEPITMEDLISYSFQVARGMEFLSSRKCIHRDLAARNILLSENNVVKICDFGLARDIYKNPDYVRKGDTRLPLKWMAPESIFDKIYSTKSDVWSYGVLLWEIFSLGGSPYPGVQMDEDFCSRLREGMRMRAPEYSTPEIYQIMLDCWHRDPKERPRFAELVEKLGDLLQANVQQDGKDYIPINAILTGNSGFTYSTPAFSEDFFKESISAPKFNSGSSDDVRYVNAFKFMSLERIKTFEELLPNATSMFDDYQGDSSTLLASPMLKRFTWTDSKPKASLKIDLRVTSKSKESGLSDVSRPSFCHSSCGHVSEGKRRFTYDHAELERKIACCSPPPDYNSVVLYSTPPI

CCn1c(N2CCNCC2)nc2c(Br)c(Br)c(Br)c(Br)c21 [Compound 416, 4,5,6,7-tetrabromo-1-ethyl-2-(piperazin-1-yl)-1H-benzo[d]imidazole]
remaining activity at 1 µM [1]: 113%
remaining activity at 1 µM [2]: 103%
remaining activity at 1 µM [3]: 91%
remaining activity at 1 µM [4]: 86%
remaining activity at 1 µM [5]: 104%
remaining activity at 1 µM [6]: 79%
remaining activity at 1 µM [7]: 69%
remaining activity at 1 µM [8]: 86%
remaining activity at 1 µM [9]: 102%
remaining activity at 1 µM [10]: 92%
remaining activity at 1 µM [11]: 89%
remaining activity at 1 µM [12]: 95%
% remaining activity [13]: 88%
remaining activity at 1 µM [14]: 11%
remaining activity at 1 µM [15]: 63%
remaining activity at 1 µM [16]: 97%
remaining activity at 1 µM [17]: 100%
remaining activity at 1 µM [18]: 25%
remaining activity at 1 µM [19]: 89%
remaining activity at 1 µM [20]: 27%
remaining activity at 1 µM [21]: 89%
remaining activity at 1 µM [22]: 40%
remaining activity at 1 µM [23]: 87%
remaining activity at 1 µM [24]: 65%
remaining activity at 1 µM [25]: 119%
remaining activity at 1 µM [26]: 60%
remaining activity at 1 µM [27]: 103%
remaining activity at 1 µM [28]: 84%
remaining activity at 1 µM [29]: 33%
remaining activity at 1 µM [30]: 91%
remaining activity at 1 µM [31]: 59%
remaining activity at 1 µM [32]: 17%
remaining activity at 1 µM [33]: 95%
remaining activity at 1 µM [34]: 91%
remaining activity at 1 µM [35]: 72%
remaining activity at 1 µM [36]: 67%
remaining activity at 1 µM [37]: 97%
remaining activity at 1 µM [38]: 102%
remaining activity at 1 µM [39]: 62%
remaining activity at 1 µM [40]: 95%
